Like-named read-outs stand apart in the source and are kept apart here.

Assay [1] addresses T1, Muscarine M1 (GPCR-A-MA-ACH M1) (Homo sapiens, UniProt P11229).
T1 construct: expressed in transfected cells; host or cells: CHO cells
T1 sequence (P11229 1-460): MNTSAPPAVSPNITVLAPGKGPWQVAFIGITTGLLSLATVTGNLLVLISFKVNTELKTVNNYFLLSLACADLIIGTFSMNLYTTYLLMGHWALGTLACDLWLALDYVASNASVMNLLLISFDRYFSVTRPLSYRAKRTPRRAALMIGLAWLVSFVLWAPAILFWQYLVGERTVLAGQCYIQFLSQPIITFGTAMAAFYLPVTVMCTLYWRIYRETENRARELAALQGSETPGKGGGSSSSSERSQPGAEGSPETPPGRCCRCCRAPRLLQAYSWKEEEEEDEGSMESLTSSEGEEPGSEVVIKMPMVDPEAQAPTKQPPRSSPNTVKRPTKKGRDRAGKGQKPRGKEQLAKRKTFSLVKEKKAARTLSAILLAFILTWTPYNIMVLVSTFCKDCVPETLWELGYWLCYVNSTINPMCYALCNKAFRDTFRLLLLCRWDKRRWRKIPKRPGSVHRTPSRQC
Nature of the assay: Muscarine M1 receptor binding, 3H-Pirenzepine. To be noted: human M1, CHO cells, ligand 2 nM, 60 min/22° C., read-out: RB Musc. M1 3H-Pirenzepine pKi (converted). Put shortly: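 Human M1 ([3H]-pirenzepine), M3, and M4 ([3H]-4DAMP or [3H]-oxotremorine) receptor preparations incubated with radioligand and compound, first at 10 μM, then at 10-fold lower concentrations if inhibition exceeded 40%. Bound ligand separated by glass-fibre filtration and counted by scintillation. IC50 from Hill fit, converted to Ki via Cheng-Prusoff, reported as pKi.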

Assay [2] concerns the target T1, Muscarine M1 (GPCR-A-MA-ACH M1). Nature of the assay: Muscarine M1 cell-based functional assay (CHO cells, Ca2+ - FLIPR Fluorimetry). Conditions: human M1, CHO cells; agonist mode, reference agonist acetylcholine; read-out: Cell funct. Musc. M1 Agonism pEC50 (converted).
The target of assay [3] is T2, Muscarine M2 (GPCR-A-MA-ACH M2) (Cavia porcellus, UniProt H0VRN8).
T2 construct: from tissue; host or cells: guinea pig left atrium (electrically paced)
T2 sequence (H0VRN8 1-466): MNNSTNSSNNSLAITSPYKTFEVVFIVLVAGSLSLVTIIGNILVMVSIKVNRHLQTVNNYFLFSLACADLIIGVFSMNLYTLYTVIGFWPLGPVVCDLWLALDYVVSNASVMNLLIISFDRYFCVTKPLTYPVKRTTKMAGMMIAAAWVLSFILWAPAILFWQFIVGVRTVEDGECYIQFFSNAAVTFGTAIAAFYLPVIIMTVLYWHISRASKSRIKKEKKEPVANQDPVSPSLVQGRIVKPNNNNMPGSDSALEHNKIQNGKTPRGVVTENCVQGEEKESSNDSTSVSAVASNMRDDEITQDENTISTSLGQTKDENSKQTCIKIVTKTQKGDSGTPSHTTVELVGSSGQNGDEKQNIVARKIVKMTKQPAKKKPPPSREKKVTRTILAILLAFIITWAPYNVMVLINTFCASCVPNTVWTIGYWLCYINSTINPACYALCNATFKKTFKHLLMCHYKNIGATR
Kind of assay: Muscarine M2 functional assay, isolated organ (left atrium, electrically paced), agonist and antagonist mode. Further details: species or system Guinea Pig. Conditions: for EC50: read-out: Cell funct. Musc. M2 Agonism pEC50 (converted).

Where [4] appears, read: read-out: Cell funct. Musc. M2 Antagonism pA2 (converted).

For the compound `CN1CCC=C(c2n[nH]cc2SCCC=C(F)F)C1` [Compound 22J, 3-[4-(4,4-Difluoro-but-3enylsulfanyl)-1H-pyrazol-3-yl]-1,2,5,6-tetrahydro-1-methylpyridine], the Ki in assay [1] is 631 nM. Further, the values for the EC50 in assay [2] and in assay [3] were 39.8 nM and > 1000 nM, respectively. Also, in assay [3] (setting [4]), the Kb was > 1000 nM.

For the compound `C=CCCCSc1c[nH]nc1C1=CCCN(C)C1` [Compound 22L], the Ki in assay [1] is 794 nM. In addition, the EC50 was 10 nM in assay [2] and > 1000 nM in assay [3]. The Kb in assay [3] (setting [4]) is > 1000 nM.

In the case of `CCOCCSc1c[nH]nc1C1=CCCN(C)C1` [Compound 22O, 3-[4-(2-Ethoxy-ethylsulfanyl)-1H-pyrazol-3-yl]-1,2,5,6-tetrahydro-1-methylpyridine], the Ki in assay [1] was 7940 nM. In assay [2], the EC50 was 31.6 nM. In addition, in assay [3], the Kb is 20 nM and the EC50 was > 1000 nM.

As to `C=CCCCOc1c[nH]nc1C1=CCCN(C)C1` [Compound 33F, 3-(4-Pent-4-enyloxy-1H-pyrazol-3-yl)-1,2,5,6-tetrahydro-1-methylpyridine], in assay [1], the Ki was 3980 nM. In addition, the EC50 in assay [2] is 39.8 nM; in assay [3], > 1000 nM. Moreover, in assay [3] (setting [4]), the Kb is > 1000 nM.

On to `CCCCCOc1c[nH]nc1C1=CCCN(C)C1` [Compound 33G, 3-(4-Pentyloxy-1H-pyrazol-3-yl)-1,2,5,6-tetrahydro-1-methylpyridine], for which the Ki in assay [1] was 1580 nM. For the same compound, the EC50 in assay [2] is 25.1 nM; in assay [3], > 1000 nM. For the same compound, the Kb in assay [3] (setting [4]) was > 1000 nM.

The record behind these values is US8735388B2, “Heterocyclic compounds with affinity to muscarinic receptors” (Abbvie B. V. A., priority 2007, dated 2014).
